“Also recorded” adds a separate entry of the source.

The target of one data set is aFGF (Homo sapiens, UniProt P05230). Kind of data set: aFGF-induced mitogenesis inhibition test on fibroblasts in culture. More on the design: the aFGF of 139 amino acid residues. As to conditions: for aFGF-induced mitogenic activity inhibition (in words): Balb/c 3T3 fibroblasts, 60 hours, MIHS 20 μg/mL, aFGF 0.32 ng/mL; for aFGF-induced mitogenic inhibitory activity compared between compounds (stereochemical guidelines): C-9 and C-17 vs. C-14 and C-18, C-10, C-11, C-13 vs. C-9, 2-NMS vs 1-NMS series. The class given is cell-based.

The test system of data set [1] is quiescent fibroblasts (Balb/c 3T3). Kind of data set: toxicity analysis for quiescent fibroblasts (culture in the absence of aFGF). The class given is cell-based. Conditions: for toxicity for quiescent fibroblasts: within the concentration range tested / in which aFGF mitogenic activity is inhibited.
[2] abbreviates: listed as sodium 5-acetylamino-2-naphthalenesulfonate.
Setting [3] is: listed as sodium 4-hydroxy-6-amino-2-naphthalenesulfonate.

Sequence of aFGF (P05230 16-155 limits assumed): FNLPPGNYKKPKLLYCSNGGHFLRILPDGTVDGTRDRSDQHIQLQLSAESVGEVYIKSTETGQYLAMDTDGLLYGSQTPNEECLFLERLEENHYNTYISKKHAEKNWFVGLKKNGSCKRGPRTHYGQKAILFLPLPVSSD

Turning to `Cc1ccc2ccccc2c1S(=O)(=O)[O-].[Na+]` [Compound C-2, sodium 2-methyl-1-naphthalenesulfonate], the “aFGF-induced mitogenic activity inhibition (in words)” value on aFGF is on record as “aFGF-induced mitogenic activity inhibitors”. Further, the “toxicity for quiescent fibroblasts” value in data set [1] was “certain toxic effect”.
Taken in the same sequence, the figures for `Nc1ccc(S(=O)(=O)[O-])c2ccccc12.[Na+]` [Compound C-3, sodium 4-amino-1-naphthalenesulfonate] were “low aFGF-induced mitogenesis inhibitory activity” and “not toxic”.
Regarding `CC(=O)Nc1ccc(S(=O)(=O)[O-])c2ccccc12.[Na+]` [Compound C-4, sodium 4-acetylamino-1-naphthalenesulfonate], the “aFGF-induced mitogenic activity inhibition (in words)” value at aFGF is “aFGF-induced mitogenic activity inhibitors”. Besides, the “toxicity for quiescent fibroblasts” value in data set [1] is on record as “certain toxic effect”.
Turning to `O=C(Nc1ccc(S(=O)(=O)[O-])c2ccccc12)c1ccccc1.[Na+]` [Compound C-5, sodium 4-benzoylamino-1-naphthalenesulfonate], the “aFGF-induced mitogenic activity inhibition (in words)” value on aFGF is “low aFGF-induced mitogenesis inhibitory activity”. Further, in data set [1], the “toxicity for quiescent fibroblasts” value is “not toxic”.
For `CN(C)c1cccc2c(S(=O)(=O)[O-])cccc12.[Na+]` [Compound C-6, sodium 5-dimethylamino-1-naphthalenesulfonate], on aFGF, the “aFGF-induced mitogenic activity inhibition (in words)” value was “aFGF-induced mitogenic activity inhibitors”. For the same compound, in data set [1], the “toxicity for quiescent fibroblasts” value is given as “certain toxic effect”.
Take `Nc1c(O)cc(S(=O)(=O)[O-])c2ccccc12.[Na+]` [Compound C-7, sodium 4-amino-3-hydroxy-1-naphthalenesulfonate]: the “aFGF-induced mitogenic activity inhibition (in words)” value on aFGF was “aFGF-induced mitogenic activity inhibitors; also recorded: best aFGF-induced mitogenic activity inhibitory activity”. For the same compound, the “IC50 rank among the tested compounds” value against aFGF (aFGF-induced mitogenesis) is on record as “lowest IC50”. The “proliferation of quiescent fibroblasts cultured in the absence of aFGF” value in data set [1] (at concentrations exceeding 0.2 mM) was “significantly increases”. Moreover, in data set [1], the “toxicity for quiescent fibroblasts” value was “certain toxic effect”.
As to `O=S(=O)(O)c1ccc2ccccc2c1` [Compound C-8, 2-naphthalenesulfonic acid], the “aFGF-induced mitogenic activity inhibition (in words)” value on aFGF is listed as “inhibits aFGF-induced mitogenic activity at lower concentrations than compound C-1”; at aFGF (listed as 2-NMS) it was “inhibits aFGF-induced mitogenic activity”. Besides, the “toxicity for quiescent fibroblasts” value in data set [1] was “toxic”.
On to `CC(=O)Nc1cccc2cc(S(=O)(=O)[O-])ccc12.[Na+]` [Compound C-10, sodium 5-acetylamino-2-naphthalenesulfonate], for which the “aFGF-induced mitogenic activity inhibition (in words)” value at aFGF is given as “slightly less than that of C-9”; on aFGF (setting [2]) it was “potent aFGF-induced mitogenic activity inhibitors”. In addition, the “aFGF-induced mitogenic inhibitory activity compared between compounds (stereochemical guidelines)” value at aFGF is “does not substantially alter the inhibitory activity”. In addition, the “toxicity for quiescent fibroblasts” value in data set [1] was “innocuous”; in data set [1] (setting [2]), “not toxic”.
As to `O=C(Nc1cccc2cc(S(=O)(=O)[O-])ccc12)c1ccccc1.[Na+]` [Compound C-11, sodium 5-benzoylamino-2-naphthalenesulfonate], on aFGF, the “aFGF-induced mitogenic activity inhibition (in words)” value is given as “aFGF-induced mitogenic activity inhibitors” and the “aFGF-induced mitogenic inhibitory activity compared between compounds (stereochemical guidelines)” value is given as “significant reduction”.
`O=C(O)c1ccccc1C(=O)Nc1cccc2cc(S(=O)(=O)O)ccc12.[Na]` [Compound C-12, sodium 2-{[(6-sulfo-1-naphthyl)amino]carbonyl}benzoic acid]: on aFGF, the “aFGF-induced mitogenic activity inhibition (in words)” value is “effective aFGF-induced mitogenesis activity inhibitors”. For the same compound, in data set [1], the “mitogenesis inductor / tumorigenic effect on quiescent fibroblasts in the absence of aFGF” value is on record as “high mitogenesis inductor activity”.
As to `O=C(CCCCC(=O)Nc1cccc2cc(S(=O)(=O)O)ccc12)Nc1cccc2cc(S(=O)(=O)[O-])ccc12.[Na+]` [Compound C-13], on aFGF, the “aFGF-induced mitogenic activity inhibition (in words)” value was “effective aFGF-induced mitogenesis activity inhibitors” and the “aFGF-induced mitogenic inhibitory activity compared between compounds (stereochemical guidelines)” value is recorded as “significant reduction”. Besides, the “mitogenesis inductor / tumorigenic effect on quiescent fibroblasts in the absence of aFGF” value in data set [1] is “high mitogenesis inductor activity”.
For `Nc1cccc2ccc(S(=O)(=O)[O-])cc12.[Na+]` [Compound C-14, sodium 8-amino-2-naphthalenesulfonate], the “aFGF-induced mitogenic activity inhibition (in words)” value at aFGF is reported as “aFGF-induced mitogenic activity inhibitors”. For the same compound, the “toxicity for quiescent fibroblasts” value in data set [1] is “certain toxic effect”.
For `CC(=O)Nc1cccc2ccc(S(=O)(=O)[O-])cc12.[Na+]` [Compound C-15, sodium 8-acetylamino-2-naphthalenesulfonate] the same measures were “aFGF-induced mitogenic activity inhibitors” and “innocuous”.
For `O=C(Nc1cccc2ccc(S(=O)(=O)[O-])cc12)c1ccccc1.[Na+]` [Compound C-16, sodium 8-benzoylamino-2-naphthalenesulfonate] the same measures were “aFGF-induced mitogenic activity inhibitors” and “innocuous”.
Regarding `Nc1ccc2cc(S(=O)(=O)[O-])cc(O)c2c1.[Na+]` [Compound C-17, sodium 6-amino-4-hydroxy-2-naphthalenesulfonate], the “aFGF-induced mitogenic activity inhibition (in words)” value is listed as “slightly less than that of C-9” at aFGF and “potent aFGF-induced mitogenic activity inhibitors” on aFGF (setting [3]). The “aFGF-induced mitogenic inhibitory activity compared between compounds (stereochemical guidelines)” value on aFGF is given as “better aFGF-induced mitogenic activity inhibitors”. The “toxicity for quiescent fibroblasts” value is recorded as “innocuous” in data set [1] and “not toxic” in data set [1] (setting [3]).
For the compound `Nc1ccc2c(O)cc(S(=O)(=O)[O-])cc2c1.[Na+]` [Compound C-18, sodium 7-amino-4-hydroxy-2-naphthalenesulfonate], the “aFGF-induced mitogenic activity inhibition (in words)” value on aFGF is on record as “aFGF-induced mitogenic activity inhibitors”.
For the compound `CC(=O)Nc1ccc2c(O)cc(S(=O)(=O)[O-])cc2c1.[Na+]` [Compound C-19, sodium 7-acetylamino-4-hydroxy-2-naphthalenesulfonate], the “mitogenesis inductor / tumorigenic effect on quiescent fibroblasts in the absence of aFGF” value in data set [1] is on record as “certain tumorigenic effect”.
`Nc1ccc(S(=O)(=O)[O-])cc1.[Na+]` [Compound C-20, sodium 4-aminobenzenesulfonate]: the “aFGF-induced mitogenic activity inhibition (in words)” value on aFGF was “little aFGF-induced mitogenesis inhibitory activity”. Also, the “toxicity for quiescent fibroblasts” value in data set [1] was “innocuous”.
Take `NCc1ccc(S(=O)(=O)[O-])cc1.[Na+]` [Compound C-21, sodium 4-(aminomethyl)benzenesulfonate]: the “mitogenesis inductor / tumorigenic effect on quiescent fibroblasts in the absence of aFGF” value in data set [1] was “certain tumorigenic effect”.
As to `O=S(=O)([O-])c1ccc2ncccc2c1.[Na+]` [Compound C-23, sodium 6-quinolinesulfonate], on aFGF, the “aFGF-induced mitogenic activity inhibition (in words)” value is recorded as “potent aFGF-induced mitogenic activity inhibitor”. Also, the “toxicity for quiescent fibroblasts” value in data set [1] is recorded as “toxic effect”.
With `CN(C)Cc1cc2cc(S(=O)(=O)O)ccc2[nH]1` [Compound C-25, 2-[(dimethylamino)methyl]-1H-indole-5-sulfonic acid], in data set [1], the “mitogenesis inductor / tumorigenic effect on quiescent fibroblasts in the absence of aFGF” value is given as “certain tumorigenic effect”.

For the origin of these results see US20090076140A1, “PHARMACEUTICAL COMPOSITIONS CONTAINING SULPHONIC ACID DERIVATIVES” (ITALFARMACO, S. A., priority 2003, published 2009).
